Data published in patent publication US10022440B2, “Materials and methods for modulating immune responses” (UNIVERSITY OF FLORIDA RESEARCH FOUNDATION, INCORPORATED, priority 2011, dated 2018).

Experiments:
whole bone marrow cells = assay: In vitro migration assay toward GM-CSF, bone marrow cells; format: cell-based, mouse; conditions: for increase in cell migration: after 24 hrs, in the presence of GM-CSF, n=3 per group
Method: (§1) An in vitro migration assay was performed to evaluate the migratory capacity of splenocytes and bone marrow cells toward GM-CSF. NOD, non-obese resistant (NOR), and C57/BL6 (n=3 per group) mouse cells were used in this assay.

splenocytes = assay: In vitro migration assay toward GM-CSF, splenocytes; format: cell-based, mouse; conditions: for increase in cell migration: after 24 hrs, in the presence of GM-CSF, n=3 per group
Method: as §1

## GM-CSF
Whole bone marrow cells; C57/BL6 whole bone marrow cells
  increase in cell migration: 100%
Whole bone marrow cells; NOD bone marrow cells, compared with NOR and C57/BL6 bone marrow cells
  cell migration: migrated in a similar manner
Whole bone marrow cells; NOR whole bone marrow cells
  increase in cell migration: 100%
splenocytes; C57/BL6 splenocytes
  increase in cell migration: 100%
splenocytes; NOD splenocytes, p<0.05
  migration ratios with or without GM-CSF: no difference
splenocytes; NOR splenocytes
  increase in cell migration: 100%
